Laboratory results taken from US20180327367A1, “MACROCYCLIC BROAD SPECTRUM ANTIBIOTICS” (priority 2015, published 2018).
≈ marks a conversion by molar mass, not a printed value. Like-named read-outs stand apart in the source and are kept apart here.

Tests used:
[1] = system: Methicillin Resistant Staphylococcus aureus strain USA 300, NRS384; experiment: Minimum inhibitory concentration, broth micro-dilution (CLSI), S. aureus; assay type: cell-based; conditions: Staphylococcus aureus, MRSA / NRS 384 / USA300, 22 h
Procedure, shortened: (§1)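 Ten-point 2-fold series began at 4 μg/mL in protocol 2 and 0.5 μg/mL in protocol 3, in cation-adjusted MHB plus 0.002% Tween-80. Bacteria added to OD600 0.0005 final and incubated at 35° C for 22 hours per CLSI microdilution.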

[2] = molecular target: T1, SpsB (Staphylococcus aureus signal peptidase) (Staphylococcus aureus, UniProt P0A070); experiment: cell-based; assay type: biochemical; conditions: SpsB IC50, whole-cell S. aureus (USA300 background, overexpressing SpsB) as SpsB source; fluorogenic peptide substrate, kinetic read 30 min
T1 construct: This assay uses a suspension of Staphylococcus aureus cells as a source of SpsB instead of recombinant SpsB protein; endogenous in cells; host or cells: S. aureus, USA300 background, overexpressing SpsB (whole-cell suspension from frozen pellets)
T1 sequence (P0A070 whole entry): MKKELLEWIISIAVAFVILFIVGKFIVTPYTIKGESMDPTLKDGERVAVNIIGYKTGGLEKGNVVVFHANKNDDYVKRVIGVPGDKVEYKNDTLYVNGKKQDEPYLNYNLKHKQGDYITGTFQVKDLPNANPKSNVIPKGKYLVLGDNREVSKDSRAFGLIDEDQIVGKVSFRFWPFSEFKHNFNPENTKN
Procedure, shortened: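 Cleavage of an internally quenched (Dabcyl)βAla-KPAKAAE(Edans) peptide, added as 20 μM solution mixed 1:1 with cells, was followed for 30 min at 340/490 nm. SpsB came from a suspension of SpsB-overexpressing USA300 S. aureus in Tween-80-containing PBS buffer. Slopes plotted against 3-fold compound dilutions gave IC50.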

[3] = system: Escherichia coli MC4100 harboring the IMP4213 (E. coli IMP); experiment: microbe, parasite or virus in culture; assay type: cell-based; conditions: Escherichia coli, 22 h
Procedure, shortened: as §1

[4] = system: Escherichia coli ATCC 25922; experiment: Minimum inhibitory concentration, broth micro-dilution (CLSI), E. coli; assay type: cell-based; conditions: Escherichia coli, ATCC25922, 22 h
[5] = read-out: MIC (μg/mL) S. aureus, MRSA USA 300 NRS384, 35° C., 22 hours
[6] = read-out: MIC (μg/mL) E. coli IMP, E. coli MC4100 IMP4213, increased outer-membrane permeability, 35° C., 22 hours
[7] = read-out: MIC (μg/mL) E. coli, E. coli ATCC 25922, 35° C., 22 hours
[8] = MRSA USA 300 NRS384, 35° C., 22 hours, read-out: MIC (μg/mL) S. aureus
[9] = E. coli ATCC 25922, 35° C., 22 hours, read-out: MIC (μg/mL) E. coli

SMILES	MIC [1, 5]	IC50 [2]	MIC [3, 6]	MIC [4, 7]	MIC [1, 8]	MIC [4, 9]	MIC ([1]; read-out: MIC (μg/mL) S. aureus)	MIC ([3]; read-out: MIC (μg/mL) E. coli IMP)	MIC ([4]; read-out: MIC (μg/mL) E. coli)
CCCCCCc1ccc(NC(=O)N[C@@H](CCN)C(=O)N(C)[C@@H]2C(=O)N[C@@H](C)C(=O)N[C@H](C(=O)NCC#N)Cc3ccc(OCCN)c(c3)-c3cc2ccc3OCCN)c(C)c1 [Compound 404]	0.063 µg/mL (≈ 0.0737 µM)	0.88 nM	0.047 µg/mL (≈ 0.055 µM)	2 µg/mL (≈ 2.34 µM)					
CCCCCCCCCCCNC(=O)N[C@@H](CCN)C(=O)N(C)[C@@H]1C(=O)N[C@@H](C)C(=O)N[C@H](C(=O)NCC#N)Cc2ccc(OCCN)c(c2)-c2cc1ccc2OCCN [Compound 403]		< 0.5 nM	0.023 µg/mL (≈ 0.0275 µM)		0.029 µg/mL (≈ 0.0347 µM)	1.3 µg/mL (≈ 1.56 µM)			
C[C@@H]1NC(=O)[C@@H](N(C)C(=O)[C@H](CCCCN)NC(=O)c2ccc(Oc3ccc(Cl)cc3)cc2)c2ccc(OCCN)c(c2)-c2cc(ccc2OCCN)C[C@@H](C(=O)NCC#N)NC1=O [Compound 116]	0.13 µg/mL (≈ 0.145 µM)	1.3 nM	0.063 µg/mL (≈ 0.0703 µM)	12 µg/mL (≈ 13.4 µM)					
CCCCCCCCCCCCCC(=O)N[C@@H](CCN)C(=O)N(C)[C@@H]1C(=O)N[C@@H](C)C(=O)N[C@H](C(=O)NCC#N)Cc2ccc(OCCN)c(c2)-c2cc1ccc2OCC [Compound 330]		1 nM	0.063 µg/mL (≈ 0.0756 µM)		0.25 µg/mL (≈ 0.3 µM)	1 µg/mL (≈ 1.2 µM)			
C[C@@H]1NC(=O)[C@@H](N(C)C(=O)[C@H](CO)NC(=O)c2ccc(-c3ccc(Cl)cc3)nc2)c2ccc(OCCN)c(c2)-c2cc(ccc2OCCN)C[C@@H](C(=O)NCC#N)NC1=O [Compound 250]	1 µg/mL (≈ 1.19 µM)	7 nM	0.25 µg/mL (≈ 0.297 µM)	64 µg/mL (≈ 76.2 µM)					
Cc1cc(-c2ncc(CC(C)C)cn2)ccc1C(=O)N[C@@H](CCN)C(=O)N(C)[C@@H]1C(=O)N[C@@H](C)C(=O)N[C@H](C(=O)NCC#N)Cc2ccc(OCCN)c(c2)-c2cc1ccc2OCCN [Compound 174]		0.91 nM	0.026 µg/mL (≈ 0.0292 µM)		0.17 µg/mL (≈ 0.191 µM)	0.83 µg/mL (≈ 0.933 µM)			
CC(C)Cc1ccc(-c2ccc(C(=O)N[C@@H](CCN)C(=O)N(C)[C@@H]3C(=O)N[C@@H](C)C(=O)N[C@H](C(=O)NCC#N)Cc4ccc(OCCN)c(c4)-c4cc3ccc4OCCN)c(C(F)F)c2)cc1 [Compound 172]		1 nM	0.016 µg/mL (≈ 0.0173 µM)		0.094 µg/mL (≈ 0.102 µM)	0.19 µg/mL (≈ 0.206 µM)			
CCCCCCCCCNC(=O)CCC(=O)N[C@@H](CCN)C(=O)N(C)[C@@H]1C(=O)N[C@@H](C)C(=O)N[C@H](C(=O)NCC#N)Cc2ccc(OCCN)c(c2)-c2cc1ccc2OCCN [Compound 369]		0.47 nM	0.063 µg/mL (≈ 0.073 µM)		0.063 µg/mL (≈ 0.073 µM)	4 µg/mL (≈ 4.63 µM)			
CCCCOc1ccc(-c2ncc(C(=O)N[C@@H](CCN)C(=O)N(C)[C@@H]3C(=O)N[C@@H](C)C(=O)N[C@H](C(=O)NCC#N)Cc4ccc(OCCN)c(c4)-c4cc3ccc4OCCN)c(C)n2)cc1 [Compound 164]		0.62 nM	0.0039 µg/mL (≈ 0.0043 µM)		0.047 µg/mL (≈ 0.0519 µM)	0.13 µg/mL (≈ 0.143 µM)			
CCCCc1ccc(-c2ccc(C(=O)N[C@@H](CCCCN)C(=O)N(C)[C@@H]3C(=O)N[C@@H](C)C(=O)N[C@H](C(=O)NC4(C#N)CC4)Cc4ccc(O)c(c4)-c4cc3ccc4OCCN)cc2)cc1 [Compound 495]		20 nM	1 µg/mL (≈ 1.13 µM)		3 µg/mL (≈ 3.39 µM)	16 µg/mL (≈ 18.1 µM)			
C[C@@H]1NC(=O)[C@@H](N(C)C(=O)[C@H](CCCCN)NC(=O)c2ccc(-c3ccc(C(C)(C)C)cc3)cc2)c2ccc(OCCN)c(c2)-c2cc(ccc2OCCN)C[C@@H](C(=O)NCC#N)NC1=O [Compound 108]	0.063 µg/mL (≈ 0.0698 µM)	1.2 nM	0.047 µg/mL (≈ 0.0521 µM)	0.5 µg/mL (≈ 0.554 µM)					
CCCCCCCc1ccc(C(=O)N[C@@H](CCCN)C(=O)N(C)[C@@H]2C(=O)N[C@@H](C)C(=O)N[C@H](C(=O)NCC#N)Cc3ccc(OCCN)c(c3)-c3cc2ccc3OCCN)c(C)c1 [Compound 194]		0.83 nM	0.0078 µg/mL (≈ 0.00899 µM)		0.016 µg/mL (≈ 0.0184 µM)	0.25 µg/mL (≈ 0.288 µM)			
CCCCCCCCCCNCCS(=O)(=O)N[C@@H](CCO)C(=O)N(C)[C@@H]1C(=O)N[C@@H](C)C(=O)N[C@H](C(=O)NCC#N)Cc2ccc(OCCN)c(c2)-c2cc1ccc2OCCN [Compound 348]	0.055 µg/mL (≈ 0.0621 µM)	0.8 nM	1 µg/mL (≈ 1.13 µM)	> 64 µg/mL					
CCCCCCCCCCCC(=O)N[C@@H](C[C@@H]1CCCN1)C(=O)N(C)[C@@H]1C(=O)N[C@@H](C)C(=O)N[C@H](C(=O)NCC#N)Cc2ccc(OCCN)c(c2)-c2cc1ccc2OCCN [Compound 484]		1 nM	0.063 µg/mL (≈ 0.0732 µM)		0.063 µg/mL (≈ 0.0732 µM)	8 µg/mL (≈ 9.3 µM)			
C[C@@H]1NC(=O)[C@@H](N(C)C(=O)[C@H](CCN)NC(=O)c2ccc(-c3ccc(-c4ccccc4)cc3)cc2)c2ccc(OCCN)c(c2)-c2cc(ccc2OCCN)C[C@@H](C(=O)NCC#N)NC1=O [Compound 122]	0.063 µg/mL (≈ 0.0705 µM)	1.6 nM	0.031 µg/mL (≈ 0.0347 µM)	0.25 µg/mL (≈ 0.28 µM)					
CCCCCCCCc1ccc(C(=O)N[C@@H](CCN)C(=O)N(C)[C@@H]2C(=O)N[C@@H](C)C(=O)N[C@H](C(=O)NCC#N)Cc3ccc(OCCN)c(c3)-c3cc2ccc3OCCN)c(/C=C/C(N)=O)c1 [Compound 450]		0.66 nM	0.063 µg/mL (≈ 0.0682 µM)		0.13 µg/mL (≈ 0.141 µM)	16 µg/mL (≈ 17.3 µM)			
CCCCCCCOc1ccc(C(=O)N[C@@H](CCN)C(=O)N(C)[C@@H]2C(=O)N[C@@H](C)C(=O)N[C@H](C(=O)NCC#N)Cc3ccc(OCCN)c(c3)-c3cc2ccc3OCCN)c2ccccc12 [Compound 295]		0.69 nM	< 0.0039 µg/mL		0.031 µg/mL (≈ 0.0342 µM)	0.13 µg/mL (≈ 0.143 µM)			
CC(C)Cc1cnc(-c2ccc(C(=O)N[C@@H](CCN)C(=O)N(C)[C@@H]3C(=O)N[C@@H](C)C(=O)N[C@H](C(=O)NCC#N)Cc4ccc(OCCN)c(c4)-c4cc3ccc4OCCN)c3ccccc23)nc1 [Compound 182]		3.2 nM	0.13 µg/mL (≈ 0.14 µM)		0.5 µg/mL (≈ 0.54 µM)	12 µg/mL (≈ 13 µM)			
CCCCCCCCCCNCCC(=O)N(C)[C@@H]1C(=O)N[C@@H](C)C(=O)N[C@H](C(=O)NCC#N)Cc2ccc(O)c(c2)-c2cc1ccc2OCCN [Compound 316]		0.84 nM	2 µg/mL (≈ 2.83 µM)		0.13 µg/mL (≈ 0.184 µM)	> 64 µg/mL			
CCC(C)c1ccc(C(=O)N[C@@H](CCN)C(=O)N(C)[C@@H]2C(=O)N[C@@H](C)C(=O)N[C@H](C(=O)NCC#N)Cc3ccc(OCCN)c(c3)-c3cc2ccc3OCCN)c(C)c1 (some centres unmarked) [Compound 434]		1.5 nM	0.047 µg/mL (≈ 0.0579 µM)		0.25 µg/mL (≈ 0.308 µM)	2 µg/mL (≈ 2.46 µM)			
CCCCCCc1ccc(C(=O)N[C@@H](CCC(N)=O)C(=O)N(C)[C@@H]2C(=O)N[C@@H](C)C(=O)N[C@H](C(=O)NCC#N)Cc3ccc(OCCN)c(c3)-c3cc2ccc3OCCN)c(C)c1 [Compound 246]		1.1 nM	0.063 µg/mL (≈ 0.0726 µM)		0.13 µg/mL (≈ 0.15 µM)	16 µg/mL (≈ 18.4 µM)			
CCCCCCCOc1c(F)cc(C(=O)N[C@@H](CCN)C(=O)N(C)[C@@H]2C(=O)N[C@@H](C)C(=O)N[C@H](C(=O)NCC#N)Cc3ccc(OCCN)c(c3)-c3cc2ccc3OCCN)cc1Cl [Compound 293]		1.5 nM	< 0.0039 µg/mL		0.063 µg/mL (≈ 0.0693 µM)	0.38 µg/mL (≈ 0.418 µM)			
CCCCCCCc1ccc(C(=O)N[C@@H](CN)C(=O)N(C)[C@@H]2C(=O)N[C@@H](C)C(=O)N[C@H](C(=O)NCC#N)Cc3ccc(OCCN)c(c3)-c3cc2ccc3OCCN)c(C)c1 [Compound 202]		0.66 nM	0.016 µg/mL (≈ 0.019 µM)		0.031 µg/mL (≈ 0.0369 µM)	0.25 µg/mL (≈ 0.298 µM)			
CCCCc1ccc(-c2ccc(C(=O)N[C@@H](CCCN)C(=O)N(C)[C@@H]3C(=O)N[C@@H](C)C(=O)N[C@H](C(=O)N4CC4C#N)Cc4ccc(OCCN)c(c4)-c4cc3ccc4OCCN)cc2)cc1 (some centres unmarked) [Compound 520]		0.73 nM					0.38 µg/mL (≈ 0.422 µM)	0.19 µg/mL (≈ 0.211 µM)	6 µg/mL (≈ 6.67 µM)
CCC(C)(C)c1ccc(C(=O)N[C@@H](CCN)C(=O)N(C)[C@@H]2C(=O)N[C@@H](C)C(=O)N[C@H](C(=O)NCC#N)Cc3ccc(OCCN)c(c3)-c3cc2ccc3OCCN)c(C)c1 [Compound 265]	0.13 µg/mL (≈ 0.157 µM)	0.89 nM	0.043 µg/mL (≈ 0.0521 µM)	2.5 µg/mL (≈ 3.03 µM)					
CCCCc1ccc(-c2ccc(C(=O)N[C@@H](CCCCN)C(=O)N(C)[C@@H]3C(=O)N[C@@H](C)C(=O)N[C@H](C(=O)N[C@@H](C)C#N)Cc4ccc(OCCN)c(c4)-c4cc3ccc4OCCN)cc2)cc1 [Compound 332]		0.56 nM	< 0.063 µg/mL		0.13 µg/mL (≈ 0.142 µM)	3 µg/mL (≈ 3.27 µM)			
